Patent publication US20210070748A1, “INHIBITORS OF BRUTONS TYROSINE KINASE” (Pharmacyclics LLC, priority 2015, published 2021)

Key:
Type in all cases: biochemical
EGFR = EGFR (Homo sapiens, UniProt P00533); experiment: Inhibition of a panel of kinases, in vitro HotSpot kinase assay: EGFR; details: D-compounds panel data; 1 μM ATP
Experimental: (§1) The degree of inhibition of a panel of kinases is determined using the in vitro HotSpot kinase assay (purified enzymes, ^33P-ATP, an appropriate substrate and 1 μM ATP).

ITK = molecular target: T1, ITK (Homo sapiens, UniProt Q08881); experiment: Inhibition of a panel of kinases, in vitro HotSpot kinase assay: ITK; details: D-compounds panel data; 1 μM ATP
T1 sequence (Q08881 1-620): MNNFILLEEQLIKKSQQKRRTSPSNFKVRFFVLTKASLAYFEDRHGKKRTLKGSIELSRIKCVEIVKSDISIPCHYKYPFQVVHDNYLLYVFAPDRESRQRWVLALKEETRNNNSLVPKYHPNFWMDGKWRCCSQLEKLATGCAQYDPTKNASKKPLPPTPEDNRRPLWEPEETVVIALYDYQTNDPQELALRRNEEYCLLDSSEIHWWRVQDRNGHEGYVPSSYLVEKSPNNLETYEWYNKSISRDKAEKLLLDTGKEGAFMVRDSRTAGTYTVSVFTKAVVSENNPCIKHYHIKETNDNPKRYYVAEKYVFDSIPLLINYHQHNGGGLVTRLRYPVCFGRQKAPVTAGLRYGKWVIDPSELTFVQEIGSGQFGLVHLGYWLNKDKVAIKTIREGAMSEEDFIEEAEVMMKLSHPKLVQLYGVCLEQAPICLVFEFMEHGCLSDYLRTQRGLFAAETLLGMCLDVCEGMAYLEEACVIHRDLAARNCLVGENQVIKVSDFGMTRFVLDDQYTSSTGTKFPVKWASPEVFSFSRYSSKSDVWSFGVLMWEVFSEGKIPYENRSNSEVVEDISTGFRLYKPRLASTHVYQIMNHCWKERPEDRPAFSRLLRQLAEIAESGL
Experimental: as §1

SRC = SRC (Homo sapiens, UniProt P12931); experiment: Inhibition of a panel of kinases, in vitro HotSpot kinase assay: SRC; details: D-compounds panel data; 1 μM ATP
Experimental: as §1

LCK = LCK (Homo sapiens, UniProt P06239); experiment: Inhibition of a panel of kinases, in vitro HotSpot kinase assay: LCK; details: D-compounds panel data; 1 μM ATP; read-out: IC50 LCK
BTK-WT = molecular target: T2, BTK-WT (Homo sapiens, UniProt Q06187); experiment: Btk in vitro inhibitory activity (one of Method A TR-FRET, Method B electrophoretic mobility shift, Method C radiometric filter binding); details: D-compounds panel data; read-out: IC50 BTK-WT
T2 construct: purified from insect cells as a full-length construct containing an N-terminal 6X-His tag; His6 (N); made in house; host or cells: insect cells (baculovirus Sf21 in Method B)
T2 sequence (Q06187 whole entry): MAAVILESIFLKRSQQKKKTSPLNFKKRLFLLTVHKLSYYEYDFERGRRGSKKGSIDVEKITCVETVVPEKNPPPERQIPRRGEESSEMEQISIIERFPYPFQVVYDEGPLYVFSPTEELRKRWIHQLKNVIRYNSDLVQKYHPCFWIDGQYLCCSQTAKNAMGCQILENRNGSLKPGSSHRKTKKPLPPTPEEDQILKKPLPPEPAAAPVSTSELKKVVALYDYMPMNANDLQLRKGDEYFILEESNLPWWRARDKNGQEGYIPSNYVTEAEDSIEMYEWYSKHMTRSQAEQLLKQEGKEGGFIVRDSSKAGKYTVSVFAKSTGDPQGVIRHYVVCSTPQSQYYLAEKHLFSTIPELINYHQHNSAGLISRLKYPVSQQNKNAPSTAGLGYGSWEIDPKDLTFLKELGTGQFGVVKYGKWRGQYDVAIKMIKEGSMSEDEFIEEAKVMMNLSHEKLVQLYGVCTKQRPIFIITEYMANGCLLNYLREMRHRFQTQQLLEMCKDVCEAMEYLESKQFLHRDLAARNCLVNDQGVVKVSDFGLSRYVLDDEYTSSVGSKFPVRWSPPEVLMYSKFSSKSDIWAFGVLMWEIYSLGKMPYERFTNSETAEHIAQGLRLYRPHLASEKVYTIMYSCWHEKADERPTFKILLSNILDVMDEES

LCK, sequence (P06239 whole entry): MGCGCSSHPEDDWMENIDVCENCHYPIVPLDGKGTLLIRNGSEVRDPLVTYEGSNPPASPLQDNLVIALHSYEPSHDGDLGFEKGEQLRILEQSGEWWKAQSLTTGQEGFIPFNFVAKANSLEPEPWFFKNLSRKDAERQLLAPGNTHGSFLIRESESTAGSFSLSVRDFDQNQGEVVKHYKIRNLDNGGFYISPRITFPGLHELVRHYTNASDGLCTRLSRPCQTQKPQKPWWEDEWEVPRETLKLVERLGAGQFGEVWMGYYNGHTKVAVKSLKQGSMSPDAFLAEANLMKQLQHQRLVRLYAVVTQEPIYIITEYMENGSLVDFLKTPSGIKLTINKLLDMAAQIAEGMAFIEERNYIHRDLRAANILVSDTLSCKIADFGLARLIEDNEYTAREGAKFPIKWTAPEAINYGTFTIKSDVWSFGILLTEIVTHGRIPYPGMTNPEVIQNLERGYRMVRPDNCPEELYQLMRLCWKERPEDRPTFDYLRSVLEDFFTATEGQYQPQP
SRC, sequence (P12931 whole entry): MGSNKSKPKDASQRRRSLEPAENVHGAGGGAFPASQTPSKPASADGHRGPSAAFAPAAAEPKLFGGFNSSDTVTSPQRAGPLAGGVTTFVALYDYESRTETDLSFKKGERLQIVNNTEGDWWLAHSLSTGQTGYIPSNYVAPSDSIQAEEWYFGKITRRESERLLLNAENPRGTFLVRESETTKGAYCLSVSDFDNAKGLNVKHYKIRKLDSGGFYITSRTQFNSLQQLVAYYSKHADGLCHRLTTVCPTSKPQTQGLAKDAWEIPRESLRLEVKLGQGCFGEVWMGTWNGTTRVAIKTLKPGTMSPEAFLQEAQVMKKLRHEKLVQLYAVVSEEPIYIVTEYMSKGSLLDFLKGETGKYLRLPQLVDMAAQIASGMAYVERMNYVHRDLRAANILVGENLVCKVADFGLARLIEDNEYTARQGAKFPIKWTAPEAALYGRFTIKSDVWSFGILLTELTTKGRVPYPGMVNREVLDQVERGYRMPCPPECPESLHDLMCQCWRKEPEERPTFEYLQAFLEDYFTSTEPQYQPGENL
EGFR, sequence (P00533 25-1210): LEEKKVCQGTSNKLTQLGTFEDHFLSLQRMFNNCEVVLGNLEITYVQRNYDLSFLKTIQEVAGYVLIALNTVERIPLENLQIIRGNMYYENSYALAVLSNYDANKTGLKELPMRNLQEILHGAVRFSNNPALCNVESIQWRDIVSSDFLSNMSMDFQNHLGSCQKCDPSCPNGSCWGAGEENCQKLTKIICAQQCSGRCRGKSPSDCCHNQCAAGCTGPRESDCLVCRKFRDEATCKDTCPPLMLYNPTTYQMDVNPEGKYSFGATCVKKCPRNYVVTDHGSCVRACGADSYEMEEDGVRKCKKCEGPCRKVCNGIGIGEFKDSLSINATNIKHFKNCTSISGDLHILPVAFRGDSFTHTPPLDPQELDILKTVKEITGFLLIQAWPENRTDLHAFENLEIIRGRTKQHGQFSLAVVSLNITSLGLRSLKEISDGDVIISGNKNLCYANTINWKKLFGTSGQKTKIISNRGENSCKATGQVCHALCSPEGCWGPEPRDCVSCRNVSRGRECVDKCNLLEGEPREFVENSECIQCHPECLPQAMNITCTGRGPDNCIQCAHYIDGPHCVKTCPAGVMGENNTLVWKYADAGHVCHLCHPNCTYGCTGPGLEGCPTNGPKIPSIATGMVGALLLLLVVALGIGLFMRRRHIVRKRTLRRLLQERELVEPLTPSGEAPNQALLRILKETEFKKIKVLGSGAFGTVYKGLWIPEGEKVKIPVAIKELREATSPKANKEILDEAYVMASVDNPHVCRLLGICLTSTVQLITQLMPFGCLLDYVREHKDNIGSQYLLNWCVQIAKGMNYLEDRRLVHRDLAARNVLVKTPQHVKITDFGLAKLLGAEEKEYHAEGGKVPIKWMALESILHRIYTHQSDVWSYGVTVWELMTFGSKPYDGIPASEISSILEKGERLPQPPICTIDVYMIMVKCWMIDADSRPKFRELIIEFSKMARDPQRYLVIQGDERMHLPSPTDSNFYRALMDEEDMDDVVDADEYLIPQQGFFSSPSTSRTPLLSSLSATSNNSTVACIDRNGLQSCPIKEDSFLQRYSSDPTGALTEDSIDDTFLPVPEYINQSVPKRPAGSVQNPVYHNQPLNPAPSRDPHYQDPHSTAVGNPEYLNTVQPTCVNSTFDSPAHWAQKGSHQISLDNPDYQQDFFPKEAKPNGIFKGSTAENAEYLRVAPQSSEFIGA

| Compound | IC50 (EGFR) | IC50 (ITK) | IC50 (SRC) | IC50 (LCK) | IC50 (BTK-WT) |
| --- | --- | --- | --- | --- | --- |
| C[C@@H]1[C@H](NC(=O)c2ccc(C3CC3)cc2)CCCN1c1cnc(C(N)=O)c(Nc2ccc(N3CCC(F)(F)CC3)cc2)n1 [Example D-96, 5-[(2R,3R)-3-(4-cyclopropylbenzamido)-2-methylpiperidin-1-yl]-3-{[4-(4,4-difluoropiperidin-1-yl)phenyl]amino}pyrazine-2-carboxamide] | > 10000 nM | > 10000 nM | > 10000 nM | > 10000 nM | 10 to 100 nM |
| C[C@@H]1[C@H](NC(=O)c2ccc(C3CC3)cc2)CCCN1c1cnc(C(N)=O)c(Nc2ccc(N3CCN(CC(F)(F)F)CC3)cc2)n1 [Example D-97, 5-[(2R,3R)-3-(4-cyclopropylbenzamido)-2-methylpiperidin-1-yl]-3-({4-[4-(2,2,2-trifluoroethyl)piperazin-1-yl]phenyl}amino)pyrazine-2-carboxamide] | > 10000 nM | 1000 to 10000 nM | 100 to 1000 nM | > 10000 nM | 10 to 100 nM |
| C[C@@H]1[C@H](NC(=O)c2ccc(C3CC3)cc2)CCCN1c1cnc(C(N)=O)c(Nc2ccc(OC3CCN(CC(F)(F)F)CC3)cc2)n1 [Example D-98, 5-[(2R,3R)-3-(4-cyclopropylbenzamido)-2-methylpiperidin-1-yl]-3-[(4-{[1-(2,2,2-trifluoroethyl)piperidin-4-yl]oxy}phenyl)amino]pyrazine-2-carboxamide] | > 10000 nM | 1000 to 10000 nM | > 10000 nM | > 10000 nM | ≤ 10 nM |
| C[C@@H]1[C@H](NC(=O)c2ccc(C3CC3)cc2)CCCN1c1cnc(C(N)=O)c(Nc2ccc(N3CCC4(CC3)COC4)cc2)n1 [Example D-99, 5-[(2R,3R)-3-(4-cyclopropylbenzamido)-2-methylpiperidin-1-yl]-3-[(4-{2-oxa-7-azaspiro[3.5]nonan-7-yl}phenyl)amino]pyrazine-2-carboxamide] | 1000 to 10000 nM | 100 to 1000 nM | 100 to 1000 nM | 100 to 1000 nM | ≤ 10 nM |
| C[C@@H]1[C@H](NC(=O)c2ccc(C3CC3)cc2)CCCN1c1cnc(C(N)=O)c(Nc2ccc(N3CCC(C(C)(C)O)CC3)cc2)n1 [Example D-100, 5-[(2R,3R)-3-(4-cyclopropylbenzamido)-2-methylpiperidin-1-yl]-3-({4-[4-(2-hydroxypropan-2-yl)piperidin-1-yl]phenyl}amino)pyrazine-2-carboxamide] | 1000 to 10000 nM | 100 to 1000 nM | 10 to 100 nM | 100 to 1000 nM | ≤ 10 nM |
| C[C@@H]1[C@H](NC(=O)c2ccc(C3CC3)cc2)CCCN1c1cnc(C(N)=O)c(Nc2ccc(OC3CCN(C4CCCC4)CC3)cc2)n1 [Example D-101, 3-({4-[(1-cyclopentylpiperidin-4-yl)oxy]phenyl}amino)-5-[(2R,3R)-3-(4-cyclopropylbenzamido)-2-methylpiperidin-1-yl]pyrazine-2-carboxamide] | 100 to 1000 nM | 10 to 100 nM | 10 to 100 nM | 10 to 100 nM | ≤ 10 nM |
| C[C@@H]1[C@H](NC(=O)N(C)C)CCCN1c1cnc(C(N)=O)c(Nc2ccc(OC3CCN(C4CCCC4)CC3)cc2)n1 [Example D-102, 3-({4-[(1-cyclopentylpiperidin-4-yl)oxy]phenyl}amino)-5-[(2R,3R)-3-[(dimethylcarbamoyl)amino]-2-methylpiperidin-1-yl]pyrazine-2-carboxamide] | 100 to 1000 nM | 10 to 100 nM | 10 to 100 nM | 10 to 100 nM | ≤ 10 nM |
| C[C@@H]1[C@H](NC(=O)c2ccc(C3CC3)cc2)CCCN1c1cnc(C(N)=O)c(Nc2ccc(N3CCN(C)CC3)cc2F)n1 [Example D-103, 5-[(2R,3R)-3-(4-cyclopropylbenzamido)-2-methylpiperidin-1-yl]-3-{[2-fluoro-4-(4-methylpiperazin-1-yl)phenyl]amino}pyrazine-2-carboxamide] | 100 to 1000 nM | 100 to 1000 nM | 1000 to 10000 nM | 100 to 1000 nM | ≤ 10 nM |
